Consider one compound from patent US20130225694A1, “COMPOSITIONS AND METHODS OF INHIBITING RETINAL DEGENERATION” (Oklahoma Medical Research Foundation, priority 2012, published 2013).

One test addresses T1, RPE65 isomerohydrolase (Bos taurus, UniProt Q28175).
T1 construct: Bovine RPE microsomes were used as a source of the RPE65 protein; from tissue; host or cells: bovine RPE microsomes
As to the kind of experiment: In vitro RPE65 isomerohydrolase assay with bovine RPE microsomes (Example 3). Type of test: biochemical. The source says: In this Example, the effect of several PBN analogs on RPE65 isomerohydrolase activity was investigated in an in vitro assay. The chemical structures of the PBN analogs utilized are described herein above. Bovine RPE microsomes were used as a source of the RPE65 protein and all-trans-[^3H] retinol was a substrate for the isomerohydrolase assay. The produced 11-cis-[^3H] retinol was quantified by normal phase HPLC with flow scintillation analyzer. The inhibition of isomerohydrolase activity was dependent on the PBN analog's concentration.
FIG. 9 also illustrates the calculation of IC50 values for the two difluoro-PBN analogs. IC50 values are the concentration of the inhibitor that inhibits 50% of the enzymatic activity. Therefore, the smaller the IC50 value, the better the drug.

For the next test, the target named is T2, chicken RPE65 (Gallus gallus, UniProt Q9YGX2).
T2 construct: made in house; host or cells: 293A cells infected with chicken RPE65 adenovirus; total lysate used
T2 sequence (Q9YGX2 1-533): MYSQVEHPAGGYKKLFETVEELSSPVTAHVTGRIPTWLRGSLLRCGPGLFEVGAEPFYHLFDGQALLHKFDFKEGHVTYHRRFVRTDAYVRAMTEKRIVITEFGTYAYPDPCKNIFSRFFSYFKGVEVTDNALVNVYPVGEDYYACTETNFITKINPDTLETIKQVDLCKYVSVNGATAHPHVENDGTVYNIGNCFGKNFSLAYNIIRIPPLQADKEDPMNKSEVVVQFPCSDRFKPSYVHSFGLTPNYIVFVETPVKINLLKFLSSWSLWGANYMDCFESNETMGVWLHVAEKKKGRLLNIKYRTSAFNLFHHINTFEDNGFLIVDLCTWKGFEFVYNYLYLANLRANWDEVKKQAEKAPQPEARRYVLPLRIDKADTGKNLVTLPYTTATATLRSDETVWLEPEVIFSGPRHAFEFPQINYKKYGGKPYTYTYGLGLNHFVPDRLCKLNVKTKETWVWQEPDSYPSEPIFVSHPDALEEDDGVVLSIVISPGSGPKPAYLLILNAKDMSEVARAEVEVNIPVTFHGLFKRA
The experiment in a line: Liposome-based isomerohydrolase assay with recombinant chicken RPE65. Type of test: biochemical.

Another test concerns Rat Retina. As to conditions: 50 mg/kg 0.5 hour before light stress 2,700 lux for 24 hours; earlier publication (1); cited from earlier work.

The structures appear in SMILES notation. Read-outs that look alike come from different tables or passages of the source.

T1 sequence (Q28175 whole entry): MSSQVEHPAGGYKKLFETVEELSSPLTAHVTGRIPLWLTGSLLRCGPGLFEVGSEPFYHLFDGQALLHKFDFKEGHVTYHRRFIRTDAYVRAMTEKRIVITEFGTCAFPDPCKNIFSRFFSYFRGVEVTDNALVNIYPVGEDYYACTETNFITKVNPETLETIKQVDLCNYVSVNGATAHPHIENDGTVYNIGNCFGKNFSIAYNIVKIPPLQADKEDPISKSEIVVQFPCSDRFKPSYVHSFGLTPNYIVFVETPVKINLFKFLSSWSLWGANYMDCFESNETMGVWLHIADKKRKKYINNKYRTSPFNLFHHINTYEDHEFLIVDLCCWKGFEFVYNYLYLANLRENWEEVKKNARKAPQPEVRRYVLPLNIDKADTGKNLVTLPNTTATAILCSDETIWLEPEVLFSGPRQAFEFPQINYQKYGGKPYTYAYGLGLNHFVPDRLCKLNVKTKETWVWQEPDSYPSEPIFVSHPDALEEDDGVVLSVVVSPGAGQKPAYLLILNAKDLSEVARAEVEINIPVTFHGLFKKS

A word on the IC50: it is the concentration needed to halve the response being measured. Broadly, the Ki is a measure of affinity in units of concentration, obtained from inhibition or displacement. Take `CC(C)(C)/[N+]([O-])=C/c1ccccc1` [Compound 1, α-phenyl-N-tert-butyl nitrone]: the half-maximal inhibitory concentration (IC50) at RPE65 isomerohydrolase (apparent IC50, bovine RPE microsomes, all-trans-[3H] retinol substrate (Table 1), read-out: IC50 Values for the Inhibition of RPE65 Isomerohydrolase Reaction) was determined as 100 µM; at RPE65 isomerohydrolase (in vitro RPE65 isomerohydrolase IC50 values repeated in Table 7, read-out: IC50), 100 µM. Also, the type of inhibition entry at chicken RPE65 (Lineweaver-Burk, with and without 0.1 mM PBN) is given as “uncompetitive inhibition”. Moreover, the inhibitory constant (Ki) on chicken RPE65 (all-trans-retinyl palmitate liposomes, 0.1 mM PBN, read-out: Ki (inhibition constant, uncompetitive formula)) came out at 53 ± 7 µM. Further, in the test on Rat Retina, the “protection of retinal structure and function” value is 80-90%.
